US11530244B2, “Cyclic polypeptides for PCSK9 inhibition” (priority 2018, dated 2022)
Starred links: 1 amine or outer side, 2 acyl side, 3 side chain; linkers in the order of their positions; H or OH if unused. Positions of bridges follow the written chain, without caps; N, C: chain ends. Non-standard residues stand in square brackets, D forms with d. Residues, ends and D or L forms follow the SMILES beside them. Groups on a side chain read outwards from the residue. ξ: configuration not given here. *: point of attachment. Ala(benzothiazol-2-yl) = N[C@@H](Cc1nc2ccccc2s1)C(=O)O; Pro(trans-4-cHex) = O=C(O)[C@@H]1C[C@@H](C2CCCCC2)CN1; Pro(trans-4-Ph) = O=C(O)[C@@H]1C[C@@H](c2ccccc2)CN1; NMeTrp(1-Me) = CN[C@@H](Cc1cn(C)c2ccccc12)C(=O)O; Pro(4R-Bn) = O=C(O)[C@@H]1C[C@@H](Cc2ccccc2)CN1; Trp(5-F) = N[C@@H](Cc1c[nH]c2ccc(F)cc12)C(=O)O; Trp(7-aza) = N[C@@H](Cc1c[nH]c2ncccc12)C(=O)O; Pro(3R-Ph) = O=C(O)[C@H]1NCC[C@@H]1c1ccccc1; X3 = O=C(CCSCc1cc(F)cc(CSCCN[*:1])c1)[*:2]; mXylylene(5-F) = Fc1cc(C[*:1])cc(C[*:2])c1; Bip = N[C@@H](Cc1ccc(-c2ccccc2)cc1)C(=O)O; NMeW = CN[C@@H](Cc1c[nH]c2ccccc12)C(=O)O; Phe(4-CN) = N#Cc1ccc(C[C@H](N)C(=O)O)cc1; X4 = O=C(CCSCc1cccc(CSCCN[*:1])c1)[*:2]; Phe(4-Me) = Cc1ccc(C[C@H](N)C(=O)O)cc1; γGlu = O=C(O)[C@H](CCC(=O)[*:2])N[*:1]; mXylylene = c1cc(C[*:1])cc(C[*:2])c1; NMeY = CN[C@@H](Cc1ccc(O)cc1)C(=O)O; Palmitoyl = CCCCCCCCCCCCCCCC(=O)*; ξAEF = NCCOc1ccc(CC(N)C(=O)O)cc1; NMeD = CN[C@@H](CC(=O)O)C(=O)O; αMeP = C[C@@]1(C(=O)O)CCCN1; Dab = NCC[C@H](N)C(=O)O; Aib = CC(C)(N)C(=O)O; OBn = c1ccc(CO*)cc1; Mpa = O=C(O)CCS; Sar = CNCC(=O)O

Each compound was assayed against human PCSK9 / human LDLR EGFa domain interaction (Homo sapiens (Human), UniProt Q8NBP7) (assay: TR-FRET assay of inhibition of the PCSK9-LDLR protein-protein interaction). Conditions: TR-FRET, 20 nM human PCSK9, 20 nM human LDLR EGFa domain, 2 hours room temperature; read-out: IC50.
human PCSK9 / human LDLR EGFa domain interaction, sequence (Q8NBP7 153-692): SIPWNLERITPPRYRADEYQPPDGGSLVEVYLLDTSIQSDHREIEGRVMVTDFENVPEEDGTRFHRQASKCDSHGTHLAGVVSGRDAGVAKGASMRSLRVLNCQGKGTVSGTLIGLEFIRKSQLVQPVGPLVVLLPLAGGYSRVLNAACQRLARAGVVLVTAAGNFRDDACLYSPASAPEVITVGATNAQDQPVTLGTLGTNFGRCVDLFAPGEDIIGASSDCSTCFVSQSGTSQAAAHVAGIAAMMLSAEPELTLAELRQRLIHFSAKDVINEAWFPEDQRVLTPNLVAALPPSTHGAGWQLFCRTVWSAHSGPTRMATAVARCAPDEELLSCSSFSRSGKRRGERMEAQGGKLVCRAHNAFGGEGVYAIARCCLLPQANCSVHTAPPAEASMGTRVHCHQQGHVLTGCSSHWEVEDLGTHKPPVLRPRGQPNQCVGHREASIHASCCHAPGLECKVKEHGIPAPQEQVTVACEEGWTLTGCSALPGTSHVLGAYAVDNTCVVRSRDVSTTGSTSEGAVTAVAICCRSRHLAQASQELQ
human PCSK9 / human LDLR EGFa domain interaction, sequence (Q8NBP7 31-152 partner): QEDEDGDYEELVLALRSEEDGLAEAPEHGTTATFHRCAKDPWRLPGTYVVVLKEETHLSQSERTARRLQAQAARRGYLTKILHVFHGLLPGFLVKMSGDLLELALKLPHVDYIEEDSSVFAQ
Type: binding
Outline: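 Half-maximal inhibitory concentrations came from 4-parameter fits of dose-response data. Proteins: biotinylated PCSK9, His-tagged LDLR EGFa, 20 nM each; labels 5 nM; 2 h, room temperature; buffer 50 mM HEPES, 150 mM NaCl, 5 mM CaCl2.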

IC50 [µM]	SMILES
21 to 50	CN1CC(=O)N[C@@H](Cc2c[nH]c3ccccc23)C(=O)N[C@@H](Cc2c[nH]c3ccccc23)C(=O)N(C)[C@@H](CC(=O)O)C(=O)N[C@@H](Cc2c[nH]cn2)C(=O)N[C@@H](Cc2ccc(O)cc2)C(=O)N2CCC[C@H]2C(=O)N[C@H](C(N)=O)CSCc2cccc(c2)CSCCC(=O)N[C@@H](CCCCN)C1=O [Compound 222] ([Mpa]K[Sar]WW[NMeD]HYPC-NH2; linker 1-10 via mXylylene)
1 to 12.1	NCCCC[C@@H]1NC(=O)CCSCc2cccc(c2)CSC[C@@H](C(N)=O)NC(=O)[C@@H]2CCCN2C(=O)[C@H](Cc2ccc(-c3ccccc3)cc2)NC(=O)[C@H](Cc2c[nH]cn2)NC(=O)[C@H](CC(=O)O)NC(=O)[C@H](Cc2c[nH]c3ccc(F)cc23)NC(=O)[C@H](Cc2c[nH]c3ccc(F)cc23)NC(=O)CNC1=O [Compound 243] ([Mpa]KG[Trp(5-F)][Trp(5-F)]DH[Bip]PC-NH2; linker 1-10 via mXylylene)
1 to 12.1	C[C@@H]1NC(=O)CCSCc2cccc(c2)CSC[C@@H](C(N)=O)NC(=O)[C@@H]2CCCN2C(=O)[C@H](Cc2ccc(O)cc2)N(C)C(=O)[C@H](Cc2c[nH]cn2)NC(=O)[C@H](CC(=O)O)N(C)C(=O)[C@H](Cc2cn(C)c3ccccc23)N(C)C(=O)[C@H](Cc2c[nH]c3ccccc23)N(C)C(=O)CN(C)C1=O [Compound 259] ([Mpa]A[Sar][NMeW][NMeTrp(1-Me)][NMeD]H[NMeY]PC-NH2; linker 1-10 via mXylylene)
21 to 50	NCCCC[C@@H]1NC(=O)CCSCc2cccc(c2)CSC[C@@H](C(N)=O)NC(=O)[C@@H]2CCCN2C(=O)[C@H](Cc2nc3ccccc3s2)NC(=O)[C@H](Cc2c[nH]cn2)NC(=O)[C@H](CC(=O)O)NC(=O)[C@H](Cc2c[nH]c3ccc(F)cc23)NC(=O)[C@H](Cc2c[nH]c3ccc(F)cc23)NC(=O)CNC1=O [Compound 266] ([Mpa]KG[Trp(5-F)][Trp(5-F)]DH[Ala(benzothiazol-2-yl)]PC-NH2; linker 1-10 via mXylylene)
21 to 50	CCCCCCCCCCCCCCCC(=O)N[C@@H](CCC(=O)N[C@@H](CCC(=O)NCCCC[C@@H]1NC(=O)CCSCc2cccc(c2)CSC[C@@H](C(N)=O)NC(=O)[C@]2(C)CCCN2C(=O)[C@H](Cc2ccc(O)cc2)NC(=O)[C@H](Cc2c[nH]cn2)NC(=O)[C@H](CC(=O)O)NC(=O)[C@H](Cc2c[nH]c3ccc(F)cc23)NC(=O)[C@H](Cc2c[nH]c3ccc(F)cc23)NC(=O)CNC1=O)C(=O)O)C(=O)O [Compound 283] ([Mpa]K([γGlu-γGlu-Palmitoyl])G[Trp(5-F)][Trp(5-F)]DHY[αMeP]C-NH2; linker 1-10 via mXylylene)
21 to 50	CCCCCCCCCCCCCCCC(=O)N[C@@H](CCC(=O)N[C@@H](CCC(=O)NCC[C@H](NC(=O)[C@@H]1CSCc2cccc(c2)CSCCC(=O)N[C@@H](CCCCN)C(=O)NCC(=O)N[C@@H](Cc2c[nH]c3ccc(F)cc23)C(=O)N[C@@H](Cc2c[nH]c3ccc(F)cc23)C(=O)N[C@@H](CC(=O)O)C(=O)N[C@@H](Cc2c[nH]cn2)C(=O)N[C@@H](Cc2ccc(O)cc2)C(=O)N2CCC[C@@]2(C)C(=O)N1)C(N)=O)C(=O)O)C(=O)O [Compound 284] ([Mpa]KG[Trp(5-F)][Trp(5-F)]DHY[αMeP]C[Dab]([γGlu-γGlu-Palmitoyl])-NH2; linker 1-10 via mXylylene)
21 to 50	C[C@@]12CCCN1C(=O)[C@H](Cc1ccc(O)cc1)NC(=O)[C@H](Cc1cnc[nH]1)NC(=O)[C@H](CC(=O)O)NC(=O)[C@H](Cc1c[nH]c3ccc(F)cc13)NC(=O)[C@H](Cc1c[nH]c3ccc(F)cc13)NC(=O)CNC(=O)[C@H](CCCCN)NC(=O)CCSCc1cc(F)cc(c1)CSC[C@@H](C(N)=O)NC2=O [Compound 287] ([Mpa]KG[Trp(5-F)][Trp(5-F)]DHY[αMeP]C-NH2; linker 1-10 via mXylylene(5-F))
0.0001 to 0.1	NCCCC[C@@H]1NC(=O)CCSCc2cccc(c2)CSC[C@@H](C(N)=O)NC(=O)[C@@H]2C[C@@H](c3ccccc3)CN2C(=O)[C@H](Cc2ccc(O)cc2)NC(=O)[C@H](Cc2c[nH]cn2)NC(=O)[C@H](CC(=O)O)NC(=O)[C@H](Cc2c[nH]c3ccc(F)cc23)NC(=O)[C@H](Cc2c[nH]c3ccc(F)cc23)NC(=O)CNC1=O [Compound 293] ([Mpa]KG[Trp(5-F)][Trp(5-F)]DHY[Pro(trans-4-Ph)]C-NH2; linker 1-10 via mXylylene)
0.1 to 1	NCCCC[C@@H]1NC(=O)CCSCc2cccc(c2)CSC[C@@H](C(N)=O)NC(=O)[C@@H]2C[C@@H](Cc3ccccc3)CN2C(=O)[C@H](Cc2ccc(O)cc2)NC(=O)[C@H](Cc2c[nH]cn2)NC(=O)[C@H](CC(=O)O)NC(=O)[C@H](Cc2c[nH]c3ccc(F)cc23)NC(=O)[C@H](Cc2c[nH]c3ccc(F)cc23)NC(=O)CNC1=O [Compound 294] ([Mpa]KG[Trp(5-F)][Trp(5-F)]DHY[Pro(4R-Bn)]C-NH2; linker 1-10 via mXylylene)
21 to 50	NCCCC[C@@H]1NC(=O)CCSCc2cccc(c2)CSC[C@@H](C(N)=O)NC(=O)[C@@H]2C[C@@H](C3CCCCC3)CN2C(=O)[C@H](Cc2ccc(O)cc2)NC(=O)[C@H](Cc2c[nH]cn2)NC(=O)[C@H](CC(=O)O)NC(=O)[C@H](Cc2c[nH]c3ccc(F)cc23)NC(=O)[C@H](Cc2c[nH]c3ccc(F)cc23)NC(=O)CNC1=O [Compound 304] ([Mpa]KG[Trp(5-F)][Trp(5-F)]DHY[Pro(trans-4-cHex)]C-NH2; linker 1-10 via mXylylene)
1 to 12.1	C[C@@H]1NC(=O)CCSCc2cccc(c2)CSC[C@@H](C(N)=O)NC(=O)[C@]2(C)CCCN2C(=O)[C@H](Cc2ccc(O)cc2)NC(=O)[C@H](Cc2cnc[nH]2)NC(=O)[C@H](CC(=O)O)NC(=O)[C@H](Cc2c[nH]c3ccc(F)cc23)NC(=O)[C@H](Cc2c[nH]c3ccc(F)cc23)NC(=O)CNC1=O [Compound 308] ([Mpa]AG[Trp(5-F)][Trp(5-F)]DHY[αMeP]C-NH2; linker 1-10 via mXylylene)
21 to 50	CC1(C)NC(=O)[C@H](Cc2c[nH]c3ccc(F)cc23)NC(=O)CNC(=O)[C@H](CCCCN)NC(=O)CCSCc2cccc(c2)CSC[C@@H](C(N)=O)NC(=O)[C@@H]2CCCN2C(=O)[C@H](Cc2ccc(O)cc2)NC(=O)[C@H](Cc2cnc[nH]2)NC(=O)[C@H](CC(=O)O)NC1=O [Compound 317] ([Mpa]KG[Trp(5-F)][Aib]DHYPC-NH2; linker 1-10 via mXylylene)
0.0001 to 0.1	CC1(C)NC(=O)[C@H](Cc2cnc[nH]2)NC(=O)[C@H](CC(=O)O)NC(=O)[C@H](Cc2c[nH]c3ccc(F)cc23)NC(=O)[C@H](Cc2c[nH]c3ccc(F)cc23)NC(=O)CNC(=O)[C@H](CCCCN)NC(=O)CCSCc2cccc(c2)CSC[C@@H](C(N)=O)NC(=O)[C@@H]2CCCN2C1=O [Compound 318] ([Mpa]KG[Trp(5-F)][Trp(5-F)]DH[Aib]PC-NH2; linker 1-10 via mXylylene)
21 to 50	C[C@H]1NC(=O)[C@H](Cc2ccc(O)cc2)NC(=O)[C@H](Cc2cnc[nH]2)NC(=O)[C@H](CC(=O)O)NC(=O)[C@H](Cc2c[nH]c3ccc(F)cc23)NC(=O)[C@H](Cc2c[nH]c3ccc(F)cc23)NC(=O)CNC(=O)[C@H](CCCCN)NC(=O)CCSCc2cccc(c2)CSC[C@@H](C(N)=O)NC1=O [Compound 320] ([Mpa]KG[Trp(5-F)][Trp(5-F)]DHY[dA]C-NH2; linker 1-10 via mXylylene)
0.1 to 1	CC(=O)N[C@@H]1CC(=O)NCCOc2ccc(cc2)CC(C(N)=O)NC(=O)[C@]2(C)CCCN2C(=O)[C@H](Cc2ccc(O)cc2)NC(=O)[C@H](Cc2cnc[nH]2)NC(=O)[C@H](CC(=O)OCc2ccccc2)NC(=O)[C@H](Cc2c[nH]c3ccc(F)cc23)NC(=O)[C@H](Cc2c[nH]c3ccc(F)cc23)NC(=O)CNC1=O (some centres unmarked) [Compound 321] (Ac-[dD]G[Trp(5-F)][Trp(5-F)]D(OBn)HY[αMeP][ξAEF]-NH2; lactam 1-9)
1 to 12.1	NCCCC[C@@H]1NC(=O)CCSCc2cccc(c2)CSC[C@@H](C(N)=O)NC(=O)[C@@H]2CCCN2C(=O)[C@@H]2[C@@H](c3ccccc3)CCN2C(=O)[C@H](Cc2c[nH]cn2)NC(=O)[C@H](CC(=O)O)NC(=O)[C@H](Cc2c[nH]c3ccc(F)cc23)NC(=O)[C@H](Cc2c[nH]c3ccc(F)cc23)NC(=O)CNC1=O [Compound 326] ([Mpa]KG[Trp(5-F)][Trp(5-F)]DH[Pro(3R-Ph)]PC-NH2; linker 1-10 via mXylylene)

SMILES	IC50 [µM]
C[C@H]1NC(=O)[C@H](CCCCN)NC(=O)CCSCc2cccc(c2)CSCCNC(=O)[C@]2(C)CCCN2C(=O)[C@H](Cc2c[nH]c3ncccc23)NC(=O)[C@H](Cc2cnc[nH]2)NC(=O)[C@H](CC(=O)O)NC(=O)[C@H](Cc2c[nH]c3ccc(F)cc23)NC(=O)[C@H](Cc2c[nH]c3ccc(F)cc23)NC1=O [Compound 247] (cyclo(DH[Trp(7-aza)][αMeP][X4]K[dA][Trp(5-F)][Trp(5-F)]))	0.1 to 1
C[C@H]1NC(=O)[C@H](CCCCN)NC(=O)CCSCc2cc(F)cc(c2)CSCCNC(=O)[C@]2(C)CCCN2C(=O)[C@H](Cc2ccc(O)cc2)NC(=O)[C@H](Cc2cnc[nH]2)NC(=O)[C@H](CC(=O)O)NC(=O)[C@H](Cc2c[nH]c3ccc(F)cc23)NC(=O)[C@H](Cc2c[nH]c3ccc(F)cc23)NC1=O [Compound 289] (cyclo(DHY[αMeP][X3]K[dA][Trp(5-F)][Trp(5-F)]))	21 to 50
Cc1ccc(C[C@@H]2NC(=O)[C@H](Cc3c[nH]cn3)NC(=O)[C@H](CC(=O)O)NC(=O)[C@H](Cc3c[nH]c4ccc(F)cc34)NC(=O)[C@H](Cc3c[nH]c4ccc(F)cc34)NC(=O)[C@@H](C)NC(=O)[C@H](CCCCN)NC(=O)CCSCc3cccc(c3)CSCCNC(=O)[C@]3(C)CCCN3C2=O)cc1 [Compound 299] (cyclo(DH[Phe(4-Me)][αMeP][X4]K[dA][Trp(5-F)][Trp(5-F)]))	0.1 to 1
C[C@H]1NC(=O)[C@H](CCCCN)NC(=O)CCSCc2cccc(c2)CSCCNC(=O)[C@]2(C)CCCN2C(=O)[C@H](Cc2ccc(C#N)cc2)NC(=O)[C@H](Cc2c[nH]cn2)NC(=O)[C@H](CC(=O)O)NC(=O)[C@H](Cc2c[nH]c3ccc(F)cc23)NC(=O)[C@H](Cc2c[nH]c3ccc(F)cc23)NC1=O [Compound 300] (cyclo(DH[Phe(4-CN)][αMeP][X4]K[dA][Trp(5-F)][Trp(5-F)]))	0.1 to 1
